Assay [1] has as its system phosphorylation of ERK (Thr202/Tyr204). Briefly: Test Example 2: ERK phosphorylation inhibition action in AsPC-1, Cell ELISA. The settings on record: AsPC-1 cells, 0% = 1 μM trametinib. It counts as cell-based, human. As for the experimental part: Test Example 2: Evaluation of ERK Phosphorylation Inhibition Action on Human G12D Mutant KRAS-Positive Pancreatic Cancer Line AsPC-1
The ERK phosphorylation inhibition action of test compounds was evaluated by measuring phosphorylation of the 202th threonine (Thr202) and the 204th tyrosine (Tyr204) of ERK located downstream of the KRAS signal by Cell ELISA.
AsPC-1 cells were seeded on a 384-well plate (from Greiner bio-one) at 36 μL/well to give 2.0×10^4 cells per well. As for the cell culture conditions, a RPMI 1640 medium containing 10% fetal bovine serum was used in the presence of 5% CO2 at 37° C.
The next day, the test compounds (6 points having final concentrations in the range of 10 μM to 3.0 nM), trametinib (MEK inhibitor) of a final concentration of 1 μM as a positive control and DMSO, which was the solvent for the test compounds, as a negative control were diluted 100-fold with a fresh medium and were added at 4 μL per well. The cells were then cultured for 24 hours. After culturing, a 30% glyoxal solution (40% glyoxal [from Nacalai Tesque] was diluted with PBS) was quickly added at 30 μL per well, and the plate was allowed to stand for 90 minutes at room temperature to thus immobilize the cells. Then, the plate was centrifuged to remove the supernatant (using a centrifugal dehydrator machine, the supernatant was removed by the same method hereinafter), and 0.1% Triton X-100-containing PBS was added at 20 μL per well. After allowing to stand for 10 minutes at room temperature, the supernatant was removed by centrifugation, and the same operation was further repeated. Next, 0.5% SDS-containing PBS was added at 20 μL per well, and after allowing to stand at room temperature for 30 minutes, the supernatant was removed by centrifugation. Subsequently, a blocking solution (Intercept Blocking Buffer) was added at 20 μL per well, and the plate was allowed to stand for 1 hour at room temperature. The supernatant was removed by centrifugation, and an ERK (Thr202/Tyr204) phosphorylation antibody (Phospho-p44/42 MAPK (Erk 1/2) (Thr202/Tyr204) (D13.14.4E) XP Rabbit mAb; from Cell Signaling Technology) diluted 2,500-fold with a blocking solution was added at 10 or 15 μL per well as a primary antibody. The plate was allowed to stand at 4° C. overnight.
The next day, the plate was centrifuged to remove the supernatant. 0.05% Tween-20-containing PBS was added at 50 μL per well, and the supernatant was removed by centrifugation to thus wash each well. The washing was performed three times in total. After washing, Goat anti-Rabbit IgG H&L (IRDye 800CW) diluted 1,000-fold with a blocking solution was added at […] as a secondary antibody, and the plate was allowed to stand for 1 hour at room temperature. The plate was centrifuged to remove the supernatant, and each well was washed three times with 0.05% Tween-20-containing PBS in the same manner as after the primary antibody reaction. After removing the supernatant by centrifuging the plate, the plate was dried as it was with air at room temperature for 3 hours or more, and the 800-nm fluorescent signals were measured with Aerius.
With the signaling value at the time of addition of DMSO taken as 100% and with the signaling value at the time of addition of 1 μM trametinib taken as 0%, the 50% inhibition values (IC50) were calculated by Sigmoid-Emax model nonlinear regression analysis. The molecular weights of the test compounds were calculated as the molecular weights of the dihydrochloride for Example No. 22, the trihydrochlorides for Example Nos. 2-7, 9-12, 14-18 and 30, the tetrahydrochlorides for Example Nos. 19 and 46, the pentahydrochloride for Example No. 21 and the free forms forming no salt for the remaining Example Nos. The results for some test compounds of the formula (I) are shown in Table 3.

For assay [2], the system named is human G12D mutant KRAS-positive pancreatic cancer line AsPC-1. Briefly: Test Example 3: non-anchorage-dependent cell growth inhibition, spheroid 3D cell culture. It counts as cell-based. The following applies: AsPC-1 spheroid 3D culture, 6 days, CellTiter Glo 2.0. As for the experimental part:
Test Example 3: Evaluation of Non-Anchorage-Dependent Cell Growth Inhibition Action on Human G12D Mutant KRAS-Positive Pancreatic Cancer Line AsPC-1
The non-anchorage-dependent cell growth inhibition action of test compounds was evaluated by spheroid 3D cell culture.
AsPC-1 cells were seeded on a low-cell-adhesive round bottom 384-well plate (PrimeSurface: from Sumitomo Bakelite) at 36 μL/well to give 5×10^2 cells per well. The cell culture was performed under the same conditions as in the Test Example 2.
The next day, the test compounds (6 points having final concentrations in the range of 10 μM to 3.0 nM) and DMSO, which was the solvent for the test compounds, as a negative control were diluted 100-fold with a fresh medium and were added at 4 μL per well. After culturing in the presence of […] at 37° C. for 6 days, CellTiter Glo 2.0 (from Promega) was added at 20 μL per well. After stirring with a plate mixer (from FINEPCR) at normal temperature for 1 hour, the luminescent signals were measured with ARVO X3 (from PerkinElmer).
With the signaling value in treatment with DMSO taken as […] and with the signaling value in the medium alone without cells taken as […], the […] inhibition values (IC50) were calculated by Sigmoid-Emax model nonlinear regression analysis. The molecular weights of the test compounds were calculated as the molecular weights of the dihydrochloride for Example No. 22, the trihydrochlorides for Example Nos. 2-7, 9-12, 14-18 and 30, the tetrahydrochlorides for Example Nos. 19 and 46, the pentahydrochloride for Example No. 21 and the free forms forming no salt for the remaining Example Nos. The results for some test compounds of the formula (I) are shown in Table 4.

Counter-ions that a name gives are not always drawn. Like-named read-outs stand apart in the source and are kept apart here.

Consider `Cc1c(F)cc2[nH]ncc2c1-c1c(C2CC2)cc2c(N3C[C@@H]4C[C@H]3CN4)nc(OC3CCOCC3)nc2c1OCc1ccc(-c2cn([C@H](C(=O)N3C[C@H](O)C[C@H]3C(=O)N[C@@H](CO)c3ccccc3)C(C)C)nn2)cc1` (atropisomer, axis not shown) [Example 14], for which the 50% inhibitory concentration (IC50) stood at 63 nM in assay [1] (Homo sapiens, ASPC1, 24 h) and 153 nM in assay [2] (Homo sapiens, ASPC1, 144 h).
As to `Cc1ncsc1-c1ccc([C@H](CO)NC(=O)[C@@H]2C[C@@H](O)CN2C(=O)[C@H](C(C)C)n2cc(-c3ccc(COc4c(-c5c(C)c(F)cc6[nH]ncc56)c(C5CC5)cc5c(N6C[C@@H]7C[C@H]6CN7)nc(OCC6(CO)CCOCC6)nc45)cc3)nn2)cc1` (atropisomer, axis not shown) [Example 36], the IC50 in assay [1] (Homo sapiens, ASPC1, 24 h) worked out at 31 nM; in assay [2] (Homo sapiens, ASPC1, 144 h), 24 nM.
Turning to `Cc1ncsc1-c1ccc([C@H](CO)NC(=O)[C@@H]2C[C@@H](O)CN2C(=O)[C@H](C(C)C)n2cc(-c3ccc(COc4c(-c5c(C)c(F)cc6[nH]ncc56)c(C5CC5)cc5c(N6C[C@@H]7C[C@H]6CN7)nc(O[C@H](C)[C@@H](C)O)nc45)cc3)nn2)cc1` (atropisomer, axis not shown) [Example 37], the concentration for half-maximal inhibition (IC50) stood at 18 nM in assay [1] (Homo sapiens, ASPC1, 24 h) and 19 nM in assay [2] (Homo sapiens, ASPC1, 144 h).
As for `Cc1ncsc1-c1ccc([C@H](CO)NC(=O)[C@@H]2C[C@@H](O)CN2C(=O)C(C(C)C)n2cc(-c3ccc(COc4c(-c5c(C)c(F)cc6[nH]ncc56)c(C5CC5)cc5c(N6C[C@@H]7C[C@H]6CN7)nc(OC6CCOCC6)nc45)cc3)cn2)cc1` (single isomer, unassigned) [Example 11], the concentration for half-maximal inhibition (IC50) in assay [1] (Homo sapiens, ASPC1, 24 h) stood at 39 nM; in assay [2] (Homo sapiens, ASPC1, 144 h), 128 nM.
As to `Cc1ncsc1-c1ccc(C2(NC(=O)[C@@H]3C[C@@H](O)CN3C(=O)[C@@H](NC(=O)c3ccc(COc4c(-c5c(C)c(F)cc6[nH]ncc56)c(C5CC5)cc5c(N6C[C@@H]7C[C@H]6CN7)nc(OC6CCOCC6)nc45)cc3)C(C)C)CC2)cc1` [Example 1], the 50% inhibitory concentration (IC50) in assay [1] (Homo sapiens, ASPC1, 24 h) was determined as 89 nM; in assay [2] (Homo sapiens, ASPC1, 144 h), 190 nM.
For the compound `Cc1ncsc1-c1ccc(C2(NC(=O)[C@@H]3C[C@@H](O)CN3C(=O)[C@@H](NC(=O)c3ccc(COc4c(-c5c(C)c(F)cc6[nH]ncc56)c(C5CC5)cc5c(N6C[C@@H]7C[C@H]6CN7)nc(OC6CCOCC6)nc45)cn3)C(C)C)CC2)cc1` [Example 2], the IC50 in assay [1] (Homo sapiens, ASPC1, 24 h) is 779 nM; in assay [2] (Homo sapiens, ASPC1, 144 h) it was 1410 nM.
On to `Cc1ncsc1-c1ccc([C@H](CO)NC(=O)[C@@H]2C[C@@H](O)CN2C(=O)[C@@H](NC(=O)c2ccc(COc3c(-c4c(C)c(F)cc5[nH]ncc45)c(C4CC4)cc4c(N5C[C@@H]6C[C@H]5CN6)nc(OC5CCOCC5)nc34)cc2)C(C)C)cc1` [Example 3], for which the IC50 was determined as 62 nM in assay [1] (Homo sapiens, ASPC1, 24 h) and 108 nM in assay [2] (Homo sapiens, ASPC1, 144 h).
With `Cc1ncsc1-c1ccc([C@H](CO)NC(=O)[C@@H]2C[C@@H](O)CN2C(=O)[C@H](C(C)C)N2Cc3cc(COc4c(-c5c(C)c(F)cc6[nH]ncc56)c(C5CC5)cc5c(N6C[C@@H]7C[C@H]6CN7)nc(OC6CCOCC6)nc45)ccc3C2=O)cc1` [Example 4], the IC50 in assay [1] (Homo sapiens, ASPC1, 24 h) turned out to be 522 nM; in assay [2] (Homo sapiens, ASPC1, 144 h), 670 nM.
The matching figures for `CCOc1nc(N2C[C@@H]3C[C@H]2CN3)c2cc(C3CC3)c(-c3c(C)c(F)cc4[nH]ncc34)c(OCc3ccc(C(=O)N[C@H](C(=O)N4C[C@H](O)C[C@H]4C(=O)N[C@@H](CO)c4ccc(-c5scnc5C)cc4)C(C)C)cc3)c2n1` [Example 5]: 97 nM and 169 nM.
As to `Cc1ncsc1-c1ccc(C2(NC(=O)[C@@H]3C[C@@H](O)CN3C(=O)[C@H](C(C)C)n3cc(-c4ccc(COc5c(-c6c(C)c(F)cc7[nH]ncc67)c(C6CC6)cc6c(N7C[C@@H]8C[C@H]7CN8)nc(OC7CCOCC7)nc56)cc4)nn3)CC2)cc1` [Example 6], the IC50 in assay [1] (Homo sapiens, ASPC1, 24 h) amounted to 58 nM; in assay [2] (Homo sapiens, ASPC1, 144 h) it was 100 nM.
Take `Cc1ncsc1-c1ccc([C@H](CO)NC(=O)[C@@H]2C[C@@H](O)CN2C(=O)[C@H](C(C)C)n2cc(-c3ccc(COc4c(-c5c(C)c(F)cc6[nH]ncc56)c(C5CC5)cc5c(N6C[C@@H]7C[C@H]6CN7)nc(OC6CCOCC6)nc45)cc3)nn2)cc1` [Example 7, (4R)-1-[(2S)-2-(4-{4-[({6-cyclopropyl-4-[(1S,4S)-2,5-diazabicyclo[2.2.1]heptan-2-yl]-7-(6-fluoro-5-methyl-1H-indazol-4-yl)-2-[(oxan-4-yl)oxy]quinazolin-8-yl}oxy)methyl]phenyl}-1H-1,2,3-triazol-1-yl)-3-methylbutanoyl]-4-hydroxy-N-{(1R)-2-hydroxy-1-[4-(4-methyl-1,3-thiazol-5-yl)phenyl]ethyl}-L-prolinamide n hydrochloride]: the 50% inhibitory concentration (IC50) in assay [1] (Homo sapiens, ASPC1, 24 h, read-out: IC50) amounted to 17 nM; in assay [2] (Homo sapiens, ASPC1, 144 h, read-out: IC50), 31 nM.
Consider `Cc1ncsc1-c1ccc([C@H](CO)NC(=O)[C@@H]2C[C@@H](O)CN2C(=O)[C@H](C(C)C)n2cc(-c3ccc(COc4c(-c5c(C)c(F)cc6[nH]ncc56)c(C5CC5)cc5c(N6C[C@@H]7C[C@H]6CN7)nc(OC6CCOCC6)nc45)cc3)nn2)cc1` [Example 8, (4R)-1-[(2S)-2-(4-{4-[({6-cyclopropyl-4-[(1S,4S)-2,5-diazabicyclo[2.2.1]heptan-2-yl]-7-(6-fluoro-5-methyl-1H-indazol-4-yl)-2-[(oxan-4-yl)oxy]quinazolin-8-yl}oxy)methyl]phenyl}-1H-1,2,3-triazol-1-yl)-3-methylbutanoyl]-4-hydroxy-N-{(1R)-2-hydroxy-1-[4-(4-methyl-1,3-thiazol-5-yl)phenyl]ethyl}-L-prolinamide], for which the 50% inhibitory concentration (IC50) stood at 15 nM in assay [1] (24 hours, read-out: IC50) and 23 nM in assay [2] (read-out: IC50).
Take `Cc1ncsc1-c1ccc([C@H](C)NC(=O)[C@@H]2C[C@@H](O)CN2C(=O)[C@H](C(C)C)n2cc(-c3ccc(COc4c(-c5c(C)c(F)cc6[nH]ncc56)c(C5CC5)cc5c(N6C[C@@H]7C[C@H]6CN7)nc(OC6CCOCC6)nc45)cc3)nn2)cc1` [Example 9]: the IC50 in assay [1] (Homo sapiens, ASPC1, 24 h) was 18 nM; in assay [2] (Homo sapiens, ASPC1, 144 h), 96 nM.
For `Cc1ncsc1-c1ccc(CNC(=O)[C@@H]2C[C@@H](O)CN2C(=O)[C@H](C(C)C)n2cc(-c3ccc(COc4c(-c5c(C)c(F)cc6[nH]ncc56)c(C5CC5)cc5c(N6C[C@@H]7C[C@H]6CN7)nc(OC6CCOCC6)nc45)cc3)nn2)cc1` [Example 10] the same measures were 26 nM and 114 nM.

The record behind these values is patent US20250340561A1, “QUINAZOLINE COMPOUND FOR INDUCING DEGRADATION OF G12D MUTANT KRAS PROTEIN” (Astellas Pharma Inc., priority 2021, published 2025).
